Source: EP0726261A1, “Herbidical 1,2,4 thiadiazoles” (American Cyanamid Company, priority 1995, dated 1996)

What was measured:
Assay type in all cases: in vivo
[1] = system: Glycine max; assay: Herbicidal activity, postemergence test (Example 66); conditions: post; 1000 g/ha; assessed visually twenty days after spraying
Procedure: (§1) To evaluate their herbicidal activity, compounds according to the invention are tested using a representative range of plants: ZEAMX Zea mays ORYSA Oryza sativa GLXMA Glycine max BEAVA Beta vulgaris LIUUT Linum usitatissimum AVEFA Avena fatua ECHCG Echinochloa crus-galli SINAL Sinapsis alba
(§2) The tests fall into two categories, preemergence and postemergence. The preemergence tests involve spraying a liquid formulation of the compound onto the soil in which the seeds of the plant species mentioned above have recently been sown. The postemergence tests involve spraying a liquid formulation of the compound onto seedling plants of the above species.
(§3) The soil used in the tests is a prepared horticultural loam.
(§4) The formulations used in the tests are prepared from solutions of the test compounds in acetone containing 0.4% by weight of an alkylphenol/ethylene oxide condensate available under the trademark TRITON X-155. These acetone solutions are diluted with water and the resulting formulations applied at dosage levels corresponding to 1000 g of active material per hectare in a volume equivalent to 900 litres per hectare.
(§5) In the preemergence tests, untreated sown soil, and in the postemergence tests, untreated soil bearing seedling plants, are used as controls.
(§6) The herbicidal effects of the test compounds are assessed visually twenty days after spraying the foliage and the soil and are recorded on a 0-9 scale. A rating of 0 indicates growth as untreated control, a rating of 9 indicates death. An increase of 1 unit on the linear scale approximates to an 11% increase in the level of effect.

[2] = system: Glycine max; assay: Herbicidal activity, preemergence test (Example 66); set-up: key: A rating of 0 indicates growth as untreated control; a rating of 9 indicates death; conditions: pre; 1000 g/ha; assessed visually twenty days after spraying
Procedure: as §1, §2, §3, §4, §5, §6

[3] = system: Avena fatua; assay: as above; set-up: key: A rating of 0 indicates growth as untreated control; a rating of 9 indicates death; conditions: pre; 1000 g/ha; assessed visually twenty days after spraying
Procedure: as §1, §2, §3, §4, §5, §6

[4] = system: Beta vulgaris; assay: as above; set-up: key: A rating of 0 indicates growth as untreated control; a rating of 9 indicates death; conditions: pre; 1000 g/ha; assessed visually twenty days after spraying
Procedure: as §1, §2, §3, §4, §5, §6

[5] = system: Sinapsis alba; assay: as above; set-up: key: A rating of 0 indicates growth as untreated control; a rating of 9 indicates death; conditions: pre; 1000 g/ha; assessed visually twenty days after spraying
Procedure: as §1, §2, §3, §4, §5, §6

[6] = system: Echinochloa crus-galli; assay: as above; set-up: key: A rating of 0 indicates growth as untreated control; a rating of 9 indicates death; conditions: pre; 1000 g/ha; assessed visually twenty days after spraying
Procedure: as §1, §2, §3, §4, §5, §6

[7] = system: Oryza sativa; assay: as above; set-up: key: A rating of 0 indicates growth as untreated control; a rating of 9 indicates death; conditions: pre; 1000 g/ha; assessed visually twenty days after spraying
Procedure: as §1, §2, §3, §4, §5, §6

[8] = system: Linum usitatissimum; assay: as above; set-up: key: A rating of 0 indicates growth as untreated control; a rating of 9 indicates death; conditions: pre; 1000 g/ha; assessed visually twenty days after spraying
Procedure: as §1, §2, §3, §4, §5, §6

[9] = system: Zea mays; assay: as above; set-up: key: A rating of 0 indicates growth as untreated control; a rating of 9 indicates death; conditions: pre; 1000 g/ha; assessed visually twenty days after spraying
Procedure: as §1, §2, §3, §4, §5, §6

[10] = system: Avena fatua; assay: Herbicidal activity, postemergence test (Example 66); set-up: key: A rating of 0 indicates growth as untreated control; a rating of 9 indicates death; conditions: post; 1000 g/ha; assessed visually twenty days after spraying
Procedure: as §1, §2, §3, §4, §5, §6

[11] = system: Beta vulgaris; assay: as above; set-up: key: A rating of 0 indicates growth as untreated control; a rating of 9 indicates death; conditions: post; 1000 g/ha; assessed visually twenty days after spraying
Procedure: as §1, §2, §3, §4, §5, §6

[12] = system: Sinapsis alba; assay: as above; set-up: key: A rating of 0 indicates growth as untreated control; a rating of 9 indicates death; conditions: post; 1000 g/ha; assessed visually twenty days after spraying
Procedure: as §1, §2, §3, §4, §5, §6

[13] = system: Echinochloa crus-galli; assay: as above; set-up: key: A rating of 0 indicates growth as untreated control; a rating of 9 indicates death; conditions: post; 1000 g/ha; assessed visually twenty days after spraying
Procedure: as §1, §2, §3, §4, §5, §6

[14] = system: Oryza sativa; assay: as above; set-up: key: A rating of 0 indicates growth as untreated control; a rating of 9 indicates death; conditions: post; 1000 g/ha; assessed visually twenty days after spraying
Procedure: as §1, §2, §3, §4, §5, §6

[15] = system: Linum usitatissimum; assay: as above; set-up: key: A rating of 0 indicates growth as untreated control; a rating of 9 indicates death; conditions: post; 1000 g/ha; assessed visually twenty days after spraying
Procedure: as §1, §2, §3, §4, §5, §6

[16] = system: Zea mays; assay: as above; set-up: key: A rating of 0 indicates growth as untreated control; a rating of 9 indicates death; conditions: post; 1000 g/ha; assessed visually twenty days after spraying
Procedure: as §1, §2, §3, §4, §5, §6

SMILES | herbicidal effects on a 0-9 scale, GLXMA [1] | herbicidal effects on a 0-9 scale, GLXMA [2] | herbicidal effects on a 0-9 scale, AVEFA [3] | herbicidal effects on a 0-9 scale, BEAVA [4] | herbicidal effects on a 0-9 scale, SINAL [5] | herbicidal effects on a 0-9 scale, ECHCG [6] | herbicidal effects on a 0-9 scale, ORYSA [7] | herbicidal effects on a 0-9 scale, LIUUT [8] | herbicidal effects on a 0-9 scale, ZEAMX [9] | herbicidal effects on a 0-9 scale, AVEFA [10] | herbicidal effects on a 0-9 scale, BEAVA [11] | herbicidal effects on a 0-9 scale, SINAL [12] | herbicidal effects on a 0-9 scale, ECHCG [13] | herbicidal effects on a 0-9 scale, ORYSA [14] | herbicidal effects on a 0-9 scale, LIUUT [15] | herbicidal effects on a 0-9 scale, ZEAMX [16]
CCNC(=O)c1nc(-c2ccc(F)cc2)ns1 [Example 17] | 5 | 0 | 0 | 0 | 0 | 0 | 0 | 0 | 0 | 4 | 7 | 8 | 2 | 0 | 2 | 2
C=CCNC(=O)c1nc(-c2ccc(F)cc2)ns1 [Example 18] | 6 | 0 | 0 | 0 | 0 | 0 | 0 | 0 | 0 | 2 | 8 | 9 | 0 | 0 | 5 | 0
CC(C)CNC(=O)c1nc(-c2ccc(F)cc2)ns1 [Example 19] | 6 | 0 | 0 | 0 | 0 | 0 | 0 | 0 | 0 | 0 | 8 | 8 | 0 | 0 | 2 | 0
O=C(NCc1ccccc1)c1nc(-c2ccc(F)cc2)ns1 [Example 20] | 6 | 0 | 0 | 0 | 0 | 0 | 0 | 0 | 0 | 0 | 9 | 9 | 2 | 0 | 6 | 0
C[C@H](NC(=O)c1nsc(-c2ccc(Cl)cc2)n1)c1ccccc1 [Example 24] | 5 | 0 | 0 | 0 | 0 | 0 | 0 | 0 | 0 | 0 | 8 | 8 | 2 | 0 | 5 | 0
